Assays:
Assay in all cases: Antibacterial activity
Format in all cases: cell-based
[1] = system: e. coli; settings: against e. coli
Text: (§1) The fragrance accords can contain antibacterial ingredients described above. See U.S. Pat. No. 6,495,512 for a list of suitable antibacterial ingredients.

[2] = system: e. hirae; settings: against e. hirae
Text: as §1

[3] = system: s. aureos; settings: against s. aureos
Text: as §1

Measured: antibacterial activity

COc1ccc(C)cc1 [1-methoxy-4-methylbenzene]
high antibacterial activity: all assays above

C=CC(C)(O)CCC=C(C)C (stereo not drawn) [3,7-dimethylocta-1,6-dien-3-ol]
high antibacterial activity: all assays above
